The subject of data set [1] is Tetranychus urticae. In words: Tetranychus urticae spray test, OP-resistant. Particulars: foliar, 144 h, bean leaf discs, after 6 days, read-out: efficacy. The format is in vivo. As for the experimental part: (§1) To produce a suitable active ingredient preparation, 1 part by weight of active ingredient is dissolved with the stated parts by weight of solvent and made up with water containing an emulsifier concentration of 1000 ppm until the desired concentration is attained. To produce further test concentrations, the preparation is diluted with emulsifier-containing water. Discs of bean leaves (Phaseolus vulgaris) infested with all stages of the greenhouse red spider mite (Tetranychus urticae) are sprayed with an active ingredient preparation of the desired concentration. After 6 days, the efficacy in % is determined. 100% means that all the spider mites have been killed; 0% means that no spider mites have been killed.

A short description of data set [2]: log P by HPLC on reversed-phase column (EEC Directive 79/831 Annex V.A8). As to conditions: reversed-phase C18 HPLC column; pH 7.8, aqueous ammonium hydrogencarbonate/acetonitrile; 55° C.; read-out: log P (neutral). The format is physicochemical. As for the experimental part:
The log P values are measured according to EEC Directive 79/831 Annex V.A8 by HPLC (high-performance liquid chromatography) on a reversed-phase column (C 18). Temperature: 55° C. The LC-MS determination in the acidic range is effected at pH 2.7 using 0.1% aqueous formic acid and acetonitrile (contains 0.1% formic acid) as eluents; linear gradient from 10% acetonitrile to 95% acetonitrile. Called log P (HCOOH) in the table. LC-MS determination in the neutral range is effected at pH 7.8 with 0.001 molar aqueous ammonium hydrogencarbonate solution and acetonitrile as eluents; linear gradient from 10% acetonitrile to 95% acetonitrile. Called log P (neutral) in the table. Calibration is carried out using unbranched alkan-2-ones (having 3 to 16 carbon atoms) with known log P values (log P values determined on the basis of the retention times by linear interpolation between two successive alkanones).

In data set [3] the test system is Phaedon cochleariae. The data set is described as follows: Phaedon cochleariae spray test. The format is in vivo. As to conditions: foliar, 168 h, larvae on Chinese cabbage leaf discs, after 7 days, read-out: efficacy. How it is done: as §1, with “Chinese cabbage” for “bean”, “(Brassica pekinensis)” for “(Phaseolus vulgaris) infested with all stages of the greenhouse red spider mite (Tetranychus urticae)”, “concentration and, after drying, populated with larvae of the mustard beetle (Phaedon cochleariae).” for “concentration.”, “7” for “6”, “beetle larvae” for “spider mites”

Data set [4] deals with Myzus persicae. In words: Myzus persicae spray test. The format is in vivo. As to conditions: foliar, Chinese cabbage leaf discs, after 5-6 days, read-out: efficacy. How it is done: To produce a suitable active ingredient preparation, 1 part by weight of active ingredient is dissolved with the stated parts by weight of solvent and made up with water containing an emulsifier concentration of 1000 ppm until the desired concentration is attained. To produce further test concentrations, the preparation is diluted with emulsifier-containing water. Discs of Chinese cabbage leaves (Brassica pekinensis) infested by all stages of the green peach aphid (Myzus persicae) are sprayed with an active ingredient preparation of the desired concentration. After 5-6 days, the efficacy in % is determined. 100% means that all the aphids have been killed; 0% means that no aphids have been killed.

Data set [5] relates to Spodoptera frugiperda. The data set is described as follows: Spodoptera frugiperda spray test. As to conditions: foliar, 168 h, caterpillars on maize leaf discs, after 7 days, read-out: efficacy. The format is in vivo. How it is done:
To produce a suitable active ingredient preparation, 1 part by weight of active ingredient is dissolved with the stated parts by weight of solvent and made up with water containing an emulsifier concentration of 1000 ppm until the desired concentration is attained. To produce further test concentrations, the preparation is diluted with emulsifier-containing water. Leaf discs of maize (Zea mays) are sprayed with an active ingredient preparation of the desired concentration and, after drying, populated with caterpillars of the armyworm (Spodoptera frugiperda). After 7 days, the efficacy in % is determined. 100% means that all the caterpillars have been killed; 0% means that no caterpillar has been killed.

The subject of data set [6] is Meloidogyne incognita. In words: Meloidogyne incognita test. The format is in vivo. As to conditions: 20 ppm; lettuce; after 14 days. As for the experimental part: To produce a suitable preparation of active ingredient, 1 part by weight of active ingredient is mixed with the stated amount of solvent and the concentrate is diluted with water to the desired concentration. Vessels are filled with sand, active ingredient solution, an egg/larvae suspension of the southern root-knot nematode (Meloidogyne incognita) and lettuce seeds. The lettuce seeds germinate and the plants develop. The galls develop on the roots. After 14 days, the nematicidal efficacy in % is determined by the formation of galls. 100% means that no galls were found; 0% means that the number of galls on the treated plants corresponds to the untreated control.

Results on 20 compounds are retold here after patent US10550116B2, “Fused bicyclic heterocycle derivatives as pesticides” (BAYER CROPSCIENCE AKTIENGESELLSCHAFT, priority 2015, dated 2020).

As for `CCSc1nc2ccccc2nc1-c1nc2cc(C(F)(F)F)ncc2n1C` [Example I-4, 2-Ethylsulphanyl-3-[3-methyl-6-(trifluoromethyl)imidazo[4,5-c]pyridin-2-yl]quinoxaline], the pest or weed control at 100 g/ha in data set [1] was found to be 70%. Besides, in data set [2], the chromatographic logP was 4.1.

On to `CCS(=O)(=O)c1ccc2nc(-c3nc4cc(C(F)(F)F)ncc4n3C)c(S(=O)(=O)CC)cc2c1` [Example I-6, 3,6-Bis(ethylsulphonyl)-2-[3-methyl-6-(trifluoromethyl)imidazo[4,5-c]pyridin-2-yl]quinoline], for which the figures for the pest or weed control at 500 g/ha in data set [3], in data set [4] and in data set [5] were 83%, 90% and 100%, respectively. In addition, in data set [2], the chromatographic logP came to 2.58.

Take `CCS(=O)(=O)c1cc2ccc(Cl)cc2nc1-c1nc2cc(C(F)(F)F)ncc2n1C` [Example I-8, 7-Chloro-3-ethylsulphonyl-2-[3-methyl-6-(trifluoromethyl)imidazo[4,5-c]pyridin-2-yl]quinoline]: the pest or weed control at 500 g/ha in data set [3] came to 100%; in data set [4], 90%; in data set [5], 100%. Further, the chromatographic logP in data set [2] was determined as 2.63.

In the case of `CCS(=O)(=O)c1cc2ccccc2nc1-c1cn2cnc(C(F)(F)F)cc2n1` [Example I-11, 3-(Ethylsulphonyl)-2-[7-(trifluoromethyl)imidazo[1,2-c]pyrimidin-2-yl]quinoline], the pest or weed control at 500 g/ha in data set [3] was 100%; in data set [4] it was 70%; in data set [5], 100%. In addition, in data set [2], the chromatographic logP was determined as 2.63.

`CCS(=O)(=O)c1cc2ccccc2nc1-c1nc2cc(C(F)(F)F)cnc2o1` [Example I-13]: in data set [3], the pest or weed control at 100 g/ha was 100%. The results for the pest or weed control at 500 g/ha in data set [4] and in data set [5] were 100% and 83%, respectively. The chromatographic logP in data set [2] stood at 3.27.

As for `CCS(=O)(=O)c1cc2ccccc2nc1-c1nc2cc(SC(F)(F)F)ccc2o1` [Example I-14, 2-(3-Ethylsulphonyl-2-quinolyl)-5-(trifluoromethylsulphanyl)-1,3-benzoxazole], the pest or weed control at 500 g/ha in data set [3] was 100%; in data set [4] it was 90%; in data set [5], 100%. Further, the chromatographic logP in data set [2] came to 4.17.

With `CCS(=O)(=O)c1cc2ccccc2nc1-c1nc2cc3c(cc2n1C)OC(F)(F)O3` [Example I-16, 6-(3-Ethylsulphonyl-2-quinolyl)-2,2-difluoro-7-methyl-[1,3]dioxolo[4,5-f]benzimidazole], the pest or weed control at 500 g/ha in data set [3] turned out to be 100%; in data set [4], 90%; in data set [5], 100%. Also, in data set [2], the chromatographic logP stood at 3.39.

In the case of `CCS(=O)(=O)c1cc2ccccc2nc1-c1nc2cc(S(=O)(=O)C(F)(F)F)ccc2o1` [Example I-18, 2-(3-Ethylsulphonyl-2-quinolyl)-5-(trifluoromethylsulphonyl)-1,3-benzoxazole], the pest or weed control at 100 g/ha in data set [3] was found to be 100%; in data set [1], 70%; in data set [4] it was 100%; in data set [5] it was 100%. Further, the chromatographic logP in data set [2] is 3.62.

On to `CCS(=O)(=O)c1cc2ccccc2nc1-c1nc2cc([S+]([O-])C(F)(F)F)ccc2o1` (stereo not drawn) [Example I-19, 2-(3-Ethylsulphonyl-2-quinolyl)-5-(trifluoromethylsulphinyl)-1,3-benzoxazole], for which the pest or weed control at 100 g/ha in data set [3] stood at 100%; in data set [4], 90%; in data set [5] it was 100%. The chromatographic logP in data set [2] came to 3.05.

As for `CCS(=O)(=O)c1cc2ccccc2nc1-c1nc2cc(SC(F)(F)F)ccc2n1C` [Example I-21, 3-Ethylsulphonyl-2-[1-methyl-5-(trifluoromethylsulphanyl)benzimidazol-2-yl]quinoline], the pest or weed control at 100 g/ha in data set [3], in data set [4] and in data set [5] was 100% in each case. The pest or weed control at 20 g/ha in data set [1] is 70%. In data set [2], the chromatographic logP stood at 3.96.

With `CCS(=O)(=O)c1cc2ccccc2nc1-c1nc2cc(C(F)(F)F)nnc2n1C` [Example I-22], the results for the pest or weed control at 100 g/ha in data set [1], in data set [4] and in data set [5] were 90%, 100% and 100%, respectively.

Consider `CCS(=O)(=O)c1cc2ccccc2nc1-c1nc2cc([S+]([O-])C(F)(F)F)ccc2n1C` (stereo not drawn) [Example I-23, 3-Ethylsulphonyl-2-[1-methyl-5-(trifluoromethylsulphinyl)benzimidazol-2-yl]quinoline], for which the pest or weed control at 100 g/ha in data set [3], in data set [4] and in data set [5] was 100% each time. In addition, the pest or weed control at 20 g/ha in data set [1] stood at 100%. Moreover, the chromatographic logP in data set [2] is 2.79.

For `CCSc1cc2ccccc2nc1-c1nc2cc(SC(F)(F)F)ccc2o1` [Example I-29, 2-(3-Ethylsulphanyl-2-quinolyl)-5-(trifluoromethylsulphanyl)-1,3-benzoxazole], the pest or weed control at 100 g/ha in data set [1] was 70%. In addition, the chromatographic logP in data set [2] is 5.43.

Take `CCSc1cc2ccccc2nc1-c1nc2cc(C(F)(F)F)ccc2o1` [Example I-32]: the “nematicidal efficacy (formation of galls)” value in data set [6] stood at 100%.

On to `CCSc1cc2ccccc2nc1-c1nc2cc(SC(F)(F)F)ccc2n1C` [Example I-34, 3-Ethylsulphanyl-2-[1-methyl-5-(trifluoromethylsulphanyl)benzimidazol-2-yl]quinoline], for which the pest or weed control at 100 g/ha in data set [1] stood at 100%. In data set [2], the chromatographic logP amounted to 4.63.

Regarding `CC[S+]([O-])c1cc2ccccc2nc1-c1nc2cc3c(cc2[nH]1)OC(F)(F)O3` (stereo not drawn) [Example I-36], the pest or weed control at 100 g/ha in data set [1] stood at 90%.

Turning to `CCSc1cc2ccccc2nc1-c1nc2cc(C(F)(F)C(F)(F)F)cnc2n1C` [Example I-37], the pest or weed control at 100 g/ha in data set [1] worked out at 90%.

Take `CCSc1cnc2nc(-c3nc4cc(C(F)(F)F)ncc4n3C)c(SCC)cc2c1` [Example I-40, 3,6-Bis(ethylsulphanyl)-2-[3-methyl-6-(trifluoromethyl)-3H-imidazo[4,5-c]pyridin-2-yl]-1,8-naphthyridine]: in data set [1], the pest or weed control at 20 g/ha was 70%. For the same compound, the “nematicidal efficacy (formation of galls)” value in data set [6] is 90%. The chromatographic logP in data set [2] was determined as 3.23.

With `CCSc1c(-c2nc3cc(C(F)(F)F)ncc3n2C)ncc2ccccc12` [I′-42], the pest or weed control at 500 g/ha came out at 70% in data set [1] (500 g/ha) and 90% in data set [4].

On to `CCS(=O)(=O)c1c(-c2nc3cc(C(F)(F)F)ncc3n2C)ncc2ccccc12` [I′-44], for which the pest or weed control at 500 g/ha in data set [3] is 83%; in data set [4] it was 90%; in data set [5], 100%.
